The values that follow come from ChEMBL document CHEMBL1201862, “PubChem BioAssay data set” (2004).

Among the test systems are MOLT-4; SF-268; OVCAR-5; TK-10; OVCAR-3; RXF 393; HT-29; COLO 205; U-251; UACC-62; SW-620; SK-OV-3; SF-539; Malme-3M; CCRF-CEM; MDA-N; HCT-116; SNB-19; SN12C; KM12.
Experiment in all cases: inhibition of tumour cell growth, NCI panel, 48 h

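Interpolation was linear, between the two tested concentrations surrounding the appropriate level; five concentrations were tested over 48 hours in 96-well plates. GI50: concentration for 50% inhibition of growth.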 Calls of active or inactive are those of the source. No stated cut-off is given here; in the data, active = GI50 up to about 1.1 µM and inactive = higher. Where only a bound is given, the exact number is not on record here.

As for `CN1CN(c2ccccc2)C2(CCNCC2)C1=O`, the GI50 in the test with MOLT-4, in the test on SF-268, in the test with OVCAR-5, in the test on TK-10, with OVCAR-3 and in the test on RXF 393 was > 100 µM (inactive) throughout. The GI50 in the test with HT-29, in the test on COLO 205, in the test with U-251, with UACC-62, with SW-620 and with SK-OV-3 was > 100 µM (inactive) each time. Moreover, the GI50 in the test with SF-539, in the test with Malme-3M, with CCRF-CEM, in the test with MDA-N, in the test on HCT-116 and in the test with SNB-19 was > 100 µM (inactive) throughout. In addition, the GI50 in the test on SN12C and in the test on KM12 was > 100 µM (inactive) each time.

Consider `C[C@]12Cc3cnn(-c4ccc(F)cc4)c3NC1CC[C@@H]1C2CC[C@@]2(C)C1CC[C@@H]2O` (stereo not given in full), for which the GI50 was 2.5 µM (inactive) with MOLT-4; 10.1 µM (inactive) with SF-268; 12.7 µM (inactive) in the test on OVCAR-5; 7.71 µM (inactive) with TK-10; 12.4 µM (inactive) with OVCAR-3; 1.16 µM (inactive) in the test with RXF 393. Further, the GI50 is 1.83 µM (inactive) in the test with HT-29; 2.94 µM (inactive) with COLO 205; 5.15 µM (inactive) in the test on U-251; 11 µM (inactive) in the test on UACC-62; 3.83 µM (inactive) in the test on SW-620; 11.7 µM (inactive) with SK-OV-3. The GI50 in the test with SF-539 is 1.55 µM (inactive); in the test on Malme-3M, 11.5 µM (inactive); in the test with CCRF-CEM, 6.92 µM (inactive); in the test with MDA-N, 10.2 µM (inactive); in the test with HCT-116, 3.94 µM (inactive); with SNB-19, 15.5 µM (inactive). The results for the GI50 in the test on SN12C and with KM12 were 13.2 µM (inactive) and 4.95 µM (inactive), respectively.

Consider `Cc1c2cccc-2ccc2c1[nH]c1ccccc12`, for which the GI50 was 3.57 µM (inactive) in the test with MOLT-4; 2.04 µM (inactive) in the test with SF-268; 2.12 µM (inactive) in the test with OVCAR-5; 2.32 µM (inactive) with TK-10; 2.47 µM (inactive) in the test on OVCAR-3; 3.21 µM (inactive) with RXF 393. Moreover, the GI50 was 3.78 µM (inactive) with HT-29; 1.89 µM (inactive) in the test on COLO 205; 1.66 µM (inactive) in the test on U-251; 1.91 µM (inactive) in the test on UACC-62; 2.36 µM (inactive) with SW-620; 3.23 µM (inactive) in the test with SK-OV-3. Also, the GI50 is 1.81 µM (inactive) in the test with SF-539; 1.89 µM (inactive) with Malme-3M; 1.27 µM (inactive) in the test on CCRF-CEM; 1.97 µM (inactive) with MDA-N; 2.12 µM (inactive) in the test on HCT-116; 2.7 µM (inactive) with SNB-19. Also, the GI50 in the test on SN12C and in the test on KM12 was 2.34 µM (inactive) throughout.

For the compound `NC(=S)N/N=C/c1ncccc1N` [TRIAPINE], the GI50 in the test on MOLT-4 is 0.438 µM (active); in the test with SF-268, 0.925 µM (active); with OVCAR-5, 5.08 µM (inactive); in the test with TK-10, > 10 µM (inactive); in the test with OVCAR-3, 2.25 µM (inactive); in the test with RXF 393 it was 1.07 µM (active). Moreover, the GI50 is 1.93 µM (inactive) with HT-29; 2.23 µM (inactive) with COLO 205; 1.04 µM (active) with U-251; 0.546 µM (active) in the test with UACC-62; 3.72 µM (inactive) in the test with SW-620; > 8.55 µM (inactive) in the test with SK-OV-3. Also, the GI50 is 0.239 µM (active) in the test on SF-539; 1.87 µM (inactive) in the test with Malme-3M; 0.466 µM (active) with CCRF-CEM; 2.65 µM (inactive) in the test with MDA-N; 0.986 µM (active) in the test with HCT-116; 9.89 µM (inactive) with SNB-19. The GI50 was 1.41 µM (inactive) in the test on SN12C and 4.59 µM (inactive) in the test with KM12.
